How the values were obtained:
Conditions in all cases: 72 h
[1] = test system: Caco-2; assay: cell viability relative to DMSO; higher = less toxic
[2] = test system: Calu-3; assay: as above
[3] = test system: HepG2; assay: as above
[4] = test system: Vero E6; assay: as above
[5] = test system: Calu-3; assay: relative viability EC50 (midpoint between 100% and the lowest measured viability); higher = less toxic
[6] = test system: HepG2; assay: as above
[7] = test system: Vero E6; assay: as above
[8] = test system: Caco-2; assay: drug sensitivity score (DSS) for viability; higher = more toxic; extreme values may be limits of the assay
[9] = test system: Calu-3; assay: as above
[10] = test system: HepG2; assay: as above
[11] = test system: Vero E6; assay: as above
[12] = test system: Caco-2; assay: relative viability EC50 (midpoint between 100% and the lowest measured viability); higher = less toxic
[13] = test system: U2OS; assay: cell viability relative to DMSO; higher = less toxic
[14] = test system: U2OS; assay: relative viability EC50 (midpoint between 100% and the lowest measured viability); higher = less toxic
[15] = test system: U2OS; assay: drug sensitivity score (DSS) for viability; higher = more toxic; extreme values may be limits of the assay

Row | SMILES | cell viability ([1]; 1 nM) [%] | cell viability ([1]; 10 nM) [%] | cell viability ([1]; 100 nM) [%] | cell viability ([1]; 1000 nM) [%] | cell viability ([1]; 10000 nM) [%] | cell viability ([2]; 1 nM) [%] | cell viability ([2]; 10 nM) [%] | cell viability ([2]; 100 nM) [%] | cell viability ([2]; 1000 nM) [%] | cell viability ([2]; 10000 nM) [%] | cell viability ([3]; 1 nM) [%] | cell viability ([3]; 10 nM) [%] | cell viability ([3]; 100 nM) [%] | cell viability ([3]; 1000 nM) [%] | cell viability ([3]; 10000 nM) [%] | cell viability ([4]; 1 nM) [%] | cell viability ([4]; 10 nM) [%] | cell viability ([4]; 100 nM) [%] | cell viability ([4]; 1000 nM) [%] | cell viability ([4]; 10000 nM) [%] | relative viability EC50 [5] [µM] | relative viability EC50 [6] [µM] | relative viability EC50 [7] [µM] | drug sensitivity score [8] | drug sensitivity score [9] | drug sensitivity score [10] | drug sensitivity score [11] | relative viability EC50 [12] [µM] | cell viability ([13]; 1 nM) [%] | cell viability ([13]; 10 nM) [%] | cell viability ([13]; 100 nM) [%] | cell viability ([13]; 1000 nM) [%] | cell viability ([13]; 10000 nM) [%] | relative viability EC50 [14] [µM] | drug sensitivity score [15]
1 | CN(c1ncccc1CNc1nc(Nc2ccc3c(c2)CC(=O)N3)ncc1C(F)(F)F)S(C)(=O)=O | 105 | 111 | 107 | 91.5 | 53.1 | 108 | 104 | 100 | 108 | 39.5 | 108 | 113 | 108 | 74.1 | 7.9 | 98.5 | 101 | 87.8 | 83.9 | 41.5 | 3.74 | 1.46 | 1.64 | 3.9 | 2.8 | 9 | 5.1 | – | – | – | – | – | – | – | –
2 | O=C(NCCCCCCNC(=O)ON=C1CCCCC1)ON=C1CCCCC1 | 105 | 98.1 | 98.3 | 103 | 102 | 98.4 | 95.9 | 108 | 98.8 | 99.6 | 99.2 | 104 | 100 | 94.6 | 93.9 | 98.8 | 103 | 99.5 | 100 | 105 | > 10 | > 10 | > 10 | 0 | 0 | 0 | 0 | > 10 | – | – | – | – | – | – | –
3 | O=S1(=O)N[C@H]2CCCN2c2ccccc21 | 100 | 96.7 | 88.4 | 104 | 113 | 93.3 | 106 | 108 | 104 | 101 | 96.8 | 99.3 | 89.7 | 104 | 86.7 | 101 | 100 | 98 | 89.5 | 96.7 | > 10 | > 10 | > 10 | 0 | 0 | 0.1 | 0 | > 10 | – | – | – | – | – | – | –
4 | CC1(C)CCC(C)(C)c2cc(C(=O)Nc3ccc(C(=O)O)cc3)ccc21 [AM-580] | 95.5 | 99.1 | 98.1 | 95.6 | 93.9 | 89.5 | 83.4 | 71.6 | 77.3 | 81.6 | 92.6 | 101 | 101 | 102 | 97.3 | 103 | 106 | 102 | 101 | 96.5 | – | > 10 | > 10 | 0 | 7.7 | 0 | 0 | > 10 | 100 | 96.7 | 95.6 | 90.5 | 95.6 | > 10 | 0
5 | CC[C@H](CC#N)OC(=O)N[C@@H](C)c1cccc(NC(=O)Nc2ccc(-c3cnco3)c(OC)c2)c1 [AVN-944] | 102 | 94.1 | 93.6 | 54.8 | 48 | 97.6 | 92.9 | 88.7 | 57.3 | 58.2 | 89 | 106 | 101 | 37.6 | 29 | 97.8 | 108 | 103 | 67.6 | 30.2 | – | 0.464 | 1.06 | 9.1 | 9.1 | 11.5 | 8 | 0.319 | 105 | 101 | 102 | 45.2 | 22.2 | 0.707 | 10.7
6 | Cc1nnc(C[C@@H]2C=C(c3ccc(Cl)cc3)c3ccccc3-n3c(C)nnc32)o1 [BET-BAY-002] | 96.9 | 97.1 | 90.4 | 74.8 | 68.3 | 93.1 | 103 | 94.7 | 62.5 | 53.9 | 91 | 94.1 | 87 | 58.6 | 41.5 | 94.6 | 98 | 72.1 | 23.3 | 16.2 | – | 0.355 | 0.169 | 4.9 | 7.4 | 9.2 | 17.5 | – | 97.1 | 101 | 88.2 | 61.4 | 36.9 | 0.557 | 8.6
7 | CCCC[C@@H](NC(=O)[C@@H](Cc1cn(C(=O)OC)c2ccccc12)NC(=O)[C@H](CC(C)(C)C)NC(=O)N1[C@H](C)CCC[C@@H]1C)C(=O)O [BQ-788] | 102 | 104 | 96.1 | 106 | 104 | 98.9 | 98.3 | 112 | 106 | 97.2 | 89.9 | 88.1 | 104 | 107 | 101 | – | – | – | – | – | > 10 | > 10 | – | 0 | 0 | 0 | – | > 10 | 97.1 | 90.1 | 95.8 | 105 | 99.8 | > 10 | 0
8 | CCCCCCCCCCC(C)(C)C(=O)Nc1c(OC)cc(OC)cc1OC [CI-976] | 98.7 | 97.9 | 91.7 | 99.5 | 90.2 | 101 | 97.6 | 95.5 | 112 | 99.3 | 105 | 103 | 103 | 102 | 96.5 | – | – | – | – | – | > 10 | > 10 | – | 0 | 0 | 0 | – | > 10 | 100 | 101 | 98.9 | 103 | 97.9 | > 10 | 0
